# Source: PubChem BioAssay AID1963826 (Molecular Pharmacology Branch, DTP, NCI, 2024)
# System: 926638-142-R-J1-PDC complex spheroid viability
# Assay: Anticancer human tumor 926638-142-R-J1-PDC patient-derived endometrial carcinoma cell line growth inhibition [POLQ]
# Conditions: for IC50: curve of first compound; for viability, T/C: stronger effect = lower value
# Procedure: Multicellular complex tumor spheroid response to Polymerase (POL) inhibitors (novobiocin, ART-558, RP6685) in combination with a variety of drugs and investigational agents in selected tumor cell lines
# The POL inhibitors (novobiocin, ART-558, and RP6685) were evaluated both individually and in combination with standard of care and investigational anticancer small molecules within a complex spheroid model of solid tumors. . Complex spheroids include a stromal component modeled by human endothelial cells (HUVEC) and fibroblasts modeled by human mesenchymal stem cells (MSCs). The concentration ranges selected for each drug and investigational agent were based upon clinically achievable concentrations if the clinical Cmax of the agent was known.
# Compounds. The drugs and investigational agents: novobiocin (NSC847541), ART-558 (NSC835418), RP-6685 (NSC848927), peposertib (NSC802822), ceralasertib (NSC780249), elimusertib (NSC800525), camonsertib (NSC841442), AZD-1390 (NSC803789), olaparib (NSC753686), talazoparib (NSC767125), rucaparib (NSC756644), sotorasib (NSC818433), MRTX-1133 (NSC836407), SN-38 (NSC673596), topotecan (NSC609699), epotoside (NSC141540), doxorubicin (NSC123127), gemcitabine (NSC613327), 5-fluorouracil (NSC19893), paclitaxel (NSC125973), vemurafenib (NSC761431), MSA-2 (NSC828583), SN-011 (NSC837082), adavosertib (NSC754352), prexasertib (NSC758257), carboplatin (NSC241240) and oxaliplatin (NSC266046), were obtained from the National Cancer Institute (NCI) Developmental Therapeutics Program Chemical Repository (21). The FDA-approved anticancer drug set is available from the Developmental Therapeutics Program at https://dtp.cancer.gov/organization/dscb/obtaining/. […] The stock solutions were prepared in dimethyl sulfoxide (DMSO, Sigma-Aldrich, St. Louis, MO, cat. D2650), except for the platinum compounds which were prepared in saline (Quality Biological, Gaithersburg, MD, cat. 114-055-101), at 800-fold the tested concentration and stored at -70 degrees C prior to their use. All drugs and investigational agents were tested over a range starting from a high concentration at or near the clinical Cmax and decreasing in half-log increments. If the clinical Cmax for an agent had not been determined, the highest concentration tested was 10 microM, except for SN-38, which was tested at a high concentration of 1 microM.
# Cell Culture. All cells were maintained in an incubator at 37 degrees C and 5% CO2 with 95% humidity. The PDC lines were cultured according to standard operating procedures established by the NCI PDMR (https://pdmr.cancer.gov). Table 3 of the manuscript, lists the cell lines along with the number of the three cell types plated to form the mct-spheroids and media for tumor cell growth. After thawing, all PDC lines, except 997537-175-T-J1-PDC and 415267-285-R-J2-PDC, were cultured in Matrigel-coated flasks prepared with a working solution of 1X Ham's F-12 nutrient mix, without supplementation (Thermo Fisher Scientific, cat. 11765054), 100 U/mL penicillin-streptomycin (Thermo Fisher Scientific, cat. 15140122), and 2.5% Matrigel (Corning Inc., Corning, NY, cat. 354248) for the first three passages. The two PDC lines 997537-175-T-J1-PDC and 415267-285-R-J2-PDC were cultured on uncoated flasks. The 857933-349-R-J2-PDC line was cultured in 6C/Colon 1B media containing advanced DMEM/F-12 (Thermo Fisher Scientific, cat. 12634028), 10 mM HEPES (Thermo Fisher Scientific, cat. 15630080), 1X GlutaMAX supplement (Thermo Fisher Scientific, cat. 35050061), 0.1 mg/mL primocin (InvivoGen, San Diego, CA, cat. ant-pm-2), 10% defined fetal bovine serum, heat inactivated (HyClone Laboratories Inc., Logan, UT, cat. SH30070.03HI), 50% L-WRN conditioned media (ATCC, cat. CRL-3276), 1.25 mM N-Acetyl-L-cysteine (Sigma-Aldrich, cat. A9165), 10 mM nicotinamide (Sigma-Aldrich, cat. N0636), 1X B-27 supplement (Thermo Fisher Scientific, cat. 17504044), 1X N-2 supplement (Thermo Fisher Scientific, cat. […]
# [1] = second compound 0.0316 µM, first compound 0.0316 µM
# [2] = second compound 0.0316 µM, first compound 0.1 µM
# [3] = second compound 0.0316 µM, first compound 0.316 µM
# [4] = second compound 0.0316 µM, first compound 1 µM
# [5] = second compound 0.0316 µM, first compound 3.16 µM
# [6] = second compound 0.0316 µM, first compound 10 µM
# [7] = second compound 0.1 µM, first compound 0.0316 µM
# [8] = second compound 0.1 µM, first compound 0.1 µM
# [9] = second compound 0.1 µM, first compound 0.316 µM
# [10] = second compound 0.1 µM, first compound 1 µM
# [11] = second compound 0.1 µM, first compound 3.16 µM
# [12] = second compound 0.1 µM, first compound 10 µM
# [13] = second compound 0.316 µM, first compound 0.0316 µM
# [14] = second compound 0.316 µM, first compound 0.1 µM
# [15] = second compound 0.316 µM, first compound 0.316 µM
# [16] = second compound 0.316 µM, first compound 1 µM
# [17] = second compound 0.316 µM, first compound 3.16 µM
# [18] = second compound 0.316 µM, first compound 10 µM
# [19] = second compound 1 µM, first compound 0.0316 µM
# [20] = second compound 1 µM, first compound 0.1 µM
# [21] = second compound 1 µM, first compound 0.316 µM
# [22] = second compound 1 µM, first compound 1 µM
# [23] = second compound 1 µM, first compound 3.16 µM
# [24] = second compound 1 µM, first compound 10 µM
# [25] = second compound 3.16 µM, first compound 0.0316 µM
# [26] = second compound 3.16 µM, first compound 0.1 µM
# [27] = second compound 3.16 µM, first compound 0.316 µM
# [28] = second compound 3.16 µM, first compound 1 µM
# [29] = second compound 3.16 µM, first compound 3.16 µM
# [30] = second compound 3.16 µM, first compound 10 µM
# [31] = second compound 10 µM, first compound 0.0316 µM
# [32] = second compound 10 µM, first compound 0.1 µM
# [33] = second compound 10 µM, first compound 0.316 µM
# [34] = second compound 10 µM, first compound 1 µM
# [35] = second compound 10 µM, first compound 3.16 µM
# [36] = second compound 10 µM, first compound 10 µM
# 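Note: spheroids exposed to drugs for one week before readout.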
# 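Throughout, for viability, T/C: percent viability relative to DMSO vehicle control wells set as 100%.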
smiles,measurement,setting,value
O=C(c1cc(Cc2n[nH]c(=O)c3ccccc23)ccc1F)N1CCN(C(=O)C2CC2)CC1 + COC1C(OC(N)=O)C(O)C(Oc2ccc3c(O)c(NC(=O)c4ccc(O)c(CC=C(C)C)c4)c(=O)oc3c2C)OC1(C)C,IC50,second compound 0.0316 µM,> 10 µM
same,IC50,second compound 0.1 µM,> 10 µM
same,IC50,second compound 0.316 µM,> 10 µM
same,IC50,second compound 1 µM,> 10 µM
same,IC50,second compound 3.16 µM,> 10 µM
same,IC50,second compound 10 µM,> 10 µM
same,"viability, T/C",[1],86%
same,"viability, T/C",[2],115%
same,"viability, T/C",[3],95.5%
same,"viability, T/C",[4],115%
same,"viability, T/C",[5],84.3%
same,"viability, T/C",[6],89.7%
same,"viability, T/C",[7],92.3%
same,"viability, T/C",[8],95.5%
same,"viability, T/C",[9],108%
same,"viability, T/C",[10],95.6%
same,"viability, T/C",[11],89.3%
same,"viability, T/C",[12],76.8%
same,"viability, T/C",[13],92.3%
same,"viability, T/C",[14],95.5%
same,"viability, T/C",[15],101%
same,"viability, T/C",[16],98.1%
same,"viability, T/C",[17],80.3%
same,"viability, T/C",[18],80.1%
same,"viability, T/C",[19],117%
same,"viability, T/C",[20],91.1%
same,"viability, T/C",[21],110%
same,"viability, T/C",[22],97.5%
same,"viability, T/C",[23],80.7%
same,"viability, T/C",[24],89.3%
same,"viability, T/C",[25],98.2%
same,"viability, T/C",[26],102%
same,"viability, T/C",[27],89.4%
same,"viability, T/C",[28],111%
same,"viability, T/C",[29],99.6%
same,"viability, T/C",[30],85.7%
same,"viability, T/C",[31],95.5%
same,"viability, T/C",[32],89.3%
same,"viability, T/C",[33],92.2%
same,"viability, T/C",[34],116%
same,"viability, T/C",[35],83.1%
same,"viability, T/C",[36],96%
O=c1[nH]cc(F)c(=O)[nH]1 + COC1C(OC(N)=O)C(O)C(Oc2ccc3c(O)c(NC(=O)c4ccc(O)c(CC=C(C)C)c4)c(=O)oc3c2C)OC1(C)C,IC50,second compound 0.0316 µM,> 10 µM
same,IC50,second compound 0.1 µM,> 10 µM
same,IC50,second compound 0.316 µM,> 10 µM
same,IC50,second compound 1 µM,> 10 µM
same,IC50,second compound 3.16 µM,> 10 µM
same,IC50,second compound 10 µM,> 10 µM
same,"viability, T/C",[1],124%
same,"viability, T/C",[2],110%
same,"viability, T/C",[3],94.1%
same,"viability, T/C",[4],101%
same,"viability, T/C",[5],98.4%
same,"viability, T/C",[6],94.1%
same,"viability, T/C",[7],106%
same,"viability, T/C",[8],90.8%
same,"viability, T/C",[9],104%
same,"viability, T/C",[10],90.4%
same,"viability, T/C",[11],103%
same,"viability, T/C",[12],71%
same,"viability, T/C",[13],125%
same,"viability, T/C",[14],105%
same,"viability, T/C",[15],87.3%
same,"viability, T/C",[16],84.1%
same,"viability, T/C",[17],98.2%
same,"viability, T/C",[18],82.7%
same,"viability, T/C",[19],98.3%
same,"viability, T/C",[20],106%
same,"viability, T/C",[21],90.1%
same,"viability, T/C",[22],79.6%
same,"viability, T/C",[23],79.3%
same,"viability, T/C",[24],75.4%
same,"viability, T/C",[25],102%
same,"viability, T/C",[26],85.9%
same,"viability, T/C",[27],90.6%
same,"viability, T/C",[28],86.9%
same,"viability, T/C",[29],79.5%
same,"viability, T/C",[30],83.6%
same,"viability, T/C",[31],104%
same,"viability, T/C",[32],96.6%
same,"viability, T/C",[33],77.1%
same,"viability, T/C",[34],86.6%
same,"viability, T/C",[35],114%
same,"viability, T/C",[36],83.4%
